Reference: paper PMC4262413, “Importance of Tryptophan in Transforming an Amphipathic Peptide into a Pseudomonas aeruginosa-Targeted Antimicrobial Peptide” (PLoS ONE, 2014)
Converted amounts (≈) assume the structure as drawn. Read-outs that look alike come from different tables or passages of the source. Residues, ends and D or L forms follow the SMILES beside them.

What was measured:
Experiment in all cases: microbe, parasite or virus in culture
[1] = test system: S. typhimurium 7731; format: cell-based, Salmonella typhimurium
Procedure: (§1) Minimal inhibitory concentration (MIC) assays were performed as described previously. Briefly, after incubation overnight in Mueller-Hinton (MH) broth at 37°C, the bacteria were grown to exponential growth phase and diluted to approximately 1×10^5 CFU/ml. The peptides were dissolved in 0.2% bovine serum albumin (BSA) containing 0.01% (v/v) acetic acid, and they were then added to each well of a 96-well plates at a final concentration ranging from 0.25 to 128 µM. Each well contained a total volume of 100 µL (50 µL of inoculums and 50 µL of peptide-containing solution). The MICs were determined as the lowest concentration of peptide that prevented visible turbidity by visual inspection after incubation at 37°C for 16–18 h. Independent experiments were carried out at least three times. Uninoculated MH broth was used as a negative control and cultures without added peptides served as the positive control. Minimal bactericidal concentration (MBC) assay was performed following MIC assay. At the end of MIC assay 10 µL aliquots of the medium were taken from peptide-containing wells with no visible bacterial growth. These are plated on MH agar, incubated for 18 h to allow colony growth. The MBC was defined as the lowest peptide concentration resulting in no bacterial growth in the media. Each assay was performed at least three times.

[2] = test system: S. aureus 29213; format: cell-based, Staphylococcus aureus
Procedure: as §1

[3] = test system: E. coli 25922; format: cell-based, Escherichia coli
Procedure: as §1

[4] = test system: S. epidermidis 12228; format: cell-based, Staphyfococcus epidermidis
Procedure: as §1

[5] = test system: P. auruginosa 21630; format: cell-based, Pseudomonas aeruginosa
Procedure: as §1

[6] = test system: P. auruginosa 10419; format: cell-based, Pseudomonas aeruginosa
Procedure: as §1

[7] = test system: P. aeruginosa 27853; format: cell-based, Pseudomonas aeruginosa
Procedure: as §1

[8] = test system: P. auruginosa 21625; format: cell-based, Pseudomonas aeruginosa
Procedure: as §1

[9] = test system: P. auruginosa LC; format: cell-based, Pseudomonas aeruginosa
Procedure: as §1

[10] = test system: P. auruginosa LCCI (ciprofloxacin-resistant strain)
Procedure: as §1
(§2) The antimicrobial activity of the RI16 and mutant peptides against Gram-negative and Gram-positive bacteria were determined.

[11] = test system: P. auruginosa LCCE (ceftazidime-resistant strain)
Procedure: as §1, §2

[12] = test system: P. auruginosa LCGE (gentamincin-resistant strain)
Procedure: as §1, §2

For `CC[C@H](C)[C@H](NC(=O)[C@H](CCCCN)NC(=O)[C@H](CCCCN)NC(=O)[C@H](CC(C)C)NC(=O)[C@H](CCCNC(=N)N)NC(=O)[C@H](CCCCN)NC(=O)[C@H](CCCNC(=N)N)NC(=O)[C@@H](NC(=O)[C@H](CCCCN)NC(=O)[C@H](CCCCN)NC(=O)[C@H](CCCNC(=N)N)NC(=O)[C@H](CC(C)C)NC(=O)[C@H](CCCNC(=N)N)NC(=O)[C@H](CCCNC(=N)N)NC(=O)[C@H](Cc1ccccc1)NC(=O)[C@@H](N)CCCNC(=N)N)[C@@H](C)O)C(N)=O` [RI16] (H-RFRRLRKKTRKRLKKI-NH2), the MIC ([1]; S. typhimurium 7731, MH broth, ~1×10^5 CFU/ml, 37°C, 16–18 h, visible turbidity, at least three independent experiments) was 128 µM (≈ 279 µg/mL), the MIC ([2]; S. aureus 29213, MH broth, ~1×10^5 CFU/ml, 37°C, 16–18 h, visible turbidity, at least three independent experiments) was 128 µM (≈ 279 µg/mL) and the MIC ([3]; E. coli 25922, MH broth, ~1×10^5 CFU/ml, 37°C, 16–18 h, visible turbidity, at least three independent experiments) was 128 µM (≈ 279 µg/mL). For the same compound, the MIC ([4]; S. epidermidis 12228, MH broth, ~1×10^5 CFU/ml, 37°C, 16–18 h, visible turbidity, at least three independent experiments) was 32 µM (≈ 69.8 µg/mL), the MIC ([5]; P. auruginosa 21630, MH broth, ~1×10^5 CFU/ml, 37°C, 16–18 h, visible turbidity, at least three independent experiments) was 256 µM (≈ 559 µg/mL) and the MIC ([6]; P. auruginosa 10419, MH broth, ~1×10^5 CFU/ml, 37°C, 16–18 h, visible turbidity, at least three independent experiments) was 256 µM (≈ 559 µg/mL). The MIC ([7]; P. auruginosa 27853, MH broth, ~1×10^5 CFU/ml, 37°C, 16–18 h, visible turbidity, at least three independent experiments) was 256 µM (≈ 559 µg/mL), the MIC ([8]; P. auruginosa 21625, MH broth, ~1×10^5 CFU/ml, 37°C, 16–18 h, visible turbidity, at least three independent experiments) was 256 µM (≈ 559 µg/mL) and the MIC ([9]; P. auruginosa LC, MH broth, ~1×10^5 CFU/ml, 37°C, 16–18 h, visible turbidity, at least three independent experiments) was 32 µM (≈ 69.8 µg/mL). It also gave an MIC ([10]; P. auruginosa LCCI, ciprofloxacin-resistant strain, MH broth, ~1×10^5 CFU/ml, 37°C, 16–18 h, visible turbidity) of 256 µM (≈ 559 µg/mL), an MIC ([11]; P. auruginosa LCCE, ceftazidime-resistant strain, MH broth, ~1×10^5 CFU/ml, 37°C, 16–18 h, visible turbidity) of 256 µM (≈ 559 µg/mL) and an MIC ([12]; P. auruginosa LCGE, gentamincin-resistant strain, MH broth, ~1×10^5 CFU/ml, 37°C, 16–18 h, visible turbidity) of 256 µM (≈ 559 µg/mL).
In the case of `CC[C@H](C)[C@H](NC(=O)[C@H](CCCCN)NC(=O)[C@H](CCCCN)NC(=O)[C@H](CC(C)C)NC(=O)[C@H](CCCNC(=N)N)NC(=O)[C@H](CCCCN)NC(=O)[C@H](CCCNC(=N)N)NC(=O)[C@H](CCCCN)NC(=O)[C@H](CCCCN)NC(=O)[C@H](CCCCN)NC(=O)[C@H](CCCNC(=N)N)NC(=O)[C@H](CC(C)C)NC(=O)[C@H](CCCNC(=N)N)NC(=O)[C@H](CCCNC(=N)N)NC(=O)[C@H](Cc1ccccc1)NC(=O)[C@@H](N)CCCNC(=N)N)C(N)=O` [T9K] (H-RFRRLRKKKRKRLKKI-NH2), the MIC [1]; 7731 is reported as 256 µM (≈ 566 µg/mL), the MIC [2]; 29213 is reported as 128 µM (≈ 283 µg/mL) and the MIC [3]; 25922 is reported as 128 µM (≈ 283 µg/mL). For the same compound, the MIC [4]; 12228 was 128 µM (≈ 283 µg/mL), the MIC [5] was 256 µM (≈ 566 µg/mL) and the MIC [6] was 256 µM (≈ 566 µg/mL). For the same compound, the MIC [7]; 27853 was 128 µM (≈ 283 µg/mL), the MIC [8] was 256 µM (≈ 566 µg/mL) and the MIC [9] was 256 µM (≈ 566 µg/mL).
Compound `CC(C)(O/N=C(\C(=O)N[C@@H]1C(=O)N2C(C(=O)[O-])=C(C[n+]3ccccc3)CS[C@H]12)c1csc(N)n1)C(=O)O` [ceftazidime, reference compound] has an MIC ([11]; Pseudomonas aeruginosa) of over 512 µM.
For `CC[C@H](C)[C@H](NC(=O)[C@H](CCCCN)NC(=O)[C@H](CCCCN)NC(=O)[C@H](CC(C)C)NC(=O)[C@H](CCCNC(=N)N)NC(=O)[C@H](CCCCN)NC(=O)[C@H](CCCNC(=N)N)NC(=O)[C@H](Cc1ccccc1)NC(=O)[C@H](CCCCN)NC(=O)[C@H](CCCCN)NC(=O)[C@H](CCCNC(=N)N)NC(=O)[C@H](CC(C)C)NC(=O)[C@H](CCCNC(=N)N)NC(=O)[C@H](CCCNC(=N)N)NC(=O)[C@H](Cc1ccccc1)NC(=O)[C@@H](N)CCCNC(=N)N)C(N)=O` [T9F] (H-RFRRLRKKFRKRLKKI-NH2), the MIC [1]; 7731 was 128 µM (≈ 285 µg/mL), the MIC [2]; 29213 was 128 µM (≈ 285 µg/mL) and the MIC [3]; 25922 was 64 µM (≈ 143 µg/mL). For the same compound, the MIC [4]; 12228 was 32 µM (≈ 71.3 µg/mL), the MIC [5] was 256 µM (≈ 571 µg/mL) and the MIC [6] was 256 µM (≈ 571 µg/mL). The MIC [7]; 27853 was 256 µM (≈ 571 µg/mL), the MIC [8] was 256 µM (≈ 571 µg/mL) and the MIC [9] was 64 µM (≈ 143 µg/mL). It also gave an MIC [10] of 256 µM (≈ 571 µg/mL), an MIC [11] of 256 µM (≈ 571 µg/mL) and an MIC [12] of 256 µM (≈ 571 µg/mL).
Work on `O=C(O)c1cn(C2CC2)c2cc(N3CCNCC3)c(F)cc2c1=O` [ciprofloxacin, reference compound] yielded an MIC ([10]; Pseudomonas aeruginosa) of over 512 µM.
Compound `NCC[C@H](O)C(=O)N[C@@H]1C[C@H](N)[C@@H](O[C@H]2O[C@H](CN)[C@@H](O)[C@H](O)[C@H]2O)[C@H](O)[C@H]1O[C@H]1O[C@H](CO)[C@@H](O)[C@H](N)[C@H]1O` [Amikacin, reference compound] has an MIC ([1]; Salmonella enterica, S. typhimurium 7731, MH broth, ~1×10^5 CFU/ml, 37°C, 16–18 h, visible turbidity, at least three independent experiments) of 0.5 µM (≈ 0.293 µg/mL), an MIC ([2]; Staphylococcus aureus, S. aureus 29213, MH broth, ~1×10^5 CFU/ml, 37°C, 16–18 h, visible turbidity, at least three independent experiments) of 1 µM (≈ 0.586 µg/mL) and an MIC ([3]; Escherichia coli, 25922) of 0.125 µM (≈ 0.0732 µg/mL). The MIC ([4]; Staphylococcus epidermidis, 12228) was 0.125 µM (≈ 0.0732 µg/mL), the MIC ([5]; Pseudomonas aeruginosa, P. auruginosa 21630, MH broth, ~1×10^5 CFU/ml, 37°C, 16–18 h, visible turbidity, at least three independent experiments) was 1 µM (≈ 0.586 µg/mL) and the MIC ([6]; Pseudomonas aeruginosa, P. auruginosa 10419, MH broth, ~1×10^5 CFU/ml, 37°C, 16–18 h, visible turbidity, at least three independent experiments) was 2 µM (≈ 1.17 µg/mL). It also gave an MIC ([7]; Pseudomonas aeruginosa, P. auruginosa 27853, MH broth, ~1×10^5 CFU/ml, 37°C, 16–18 h, visible turbidity, at least three independent experiments) of 1 µM (≈ 0.586 µg/mL), an MIC ([8]; Pseudomonas aeruginosa, P. auruginosa 21625, MH broth, ~1×10^5 CFU/ml, 37°C, 16–18 h, visible turbidity, at least three independent experiments) of 16 µM (≈ 9.37 µg/mL) and an MIC ([9]; Pseudomonas aeruginosa, P. auruginosa LC, MH broth, ~1×10^5 CFU/ml, 37°C, 16–18 h, visible turbidity, at least three independent experiments) of 0.25 µM (≈ 0.146 µg/mL). The MIC ([10]; Pseudomonas aeruginosa) was 8 µM (≈ 4.68 µg/mL), the MIC ([11]; Pseudomonas aeruginosa) was 8 µM (≈ 4.68 µg/mL) and the MIC ([12]; Pseudomonas aeruginosa) was over 1280 µM.
With `CC[C@H](C)[C@H](NC(=O)[C@H](CCCCN)NC(=O)[C@H](CCCCN)NC(=O)[C@H](CC(C)C)NC(=O)[C@H](CCCNC(=N)N)NC(=O)[C@H](CCCCN)NC(=O)[C@H](CCCNC(=N)N)NC(=O)[C@@H](NC(=O)[C@H](CCCCN)NC(=O)[C@H](CCCCN)NC(=O)[C@H](CCCNC(=N)N)NC(=O)[C@H](CC(C)C)NC(=O)[C@H](CCCNC(=N)N)NC(=O)[C@H](CCCNC(=N)N)NC(=O)[C@H](Cc1ccccc1)NC(=O)[C@@H](N)CCCNC(=N)N)[C@@H](C)CC)C(N)=O` [T9I] (H-RFRRLRKKIRKRLKKI-NH2) the MIC [1]; 7731 was 256 µM (≈ 562 µg/mL), the MIC [2]; 29213 was 256 µM (≈ 562 µg/mL) and the MIC [3]; 25922 was 128 µM (≈ 281 µg/mL). It also gave an MIC [4]; 12228 of 32 µM (≈ 70.2 µg/mL), an MIC [5] of 256 µM (≈ 562 µg/mL) and an MIC [6] of 256 µM (≈ 562 µg/mL). The MIC [7]; 27853 was 256 µM (≈ 562 µg/mL), the MIC [8] was 256 µM (≈ 562 µg/mL) and the MIC [9] was 64 µM (≈ 140 µg/mL). It also gave an MIC [10] of 256 µM (≈ 562 µg/mL), an MIC [11] of 256 µM (≈ 562 µg/mL) and an MIC [12] of 256 µM (≈ 562 µg/mL).
